Source: ChEMBL document CHEMBL1177713, “Discovery of 3-[2-(imidazo[1,2-b]pyridazin-3-yl)ethynyl]-4-methyl-N-{4-[(4-methylpiperazin-1-yl)methyl]-3-(trifluoromethyl)phenyl}benzamide (AP24534), a potent, orally active pan-inhibitor of breakpoint cluster region-abelson (BCR-ABL) kinase including the T315I gatekeeper mutant” (J Med Chem, 2010)

Key:
BaF3 [1] = test: cells; settings: Mus musculus, BaF3, 72 h
Description: Antiproliferative activity against mouse BA/F3 cells expressing wild type ABL after 3 days by MTS assay

BaF3 [2] = test: cells; settings: Mus musculus, BaF3, 72 h; remark: listed apart in the source
Description: Antiproliferative activity against mouse BA/F3 cells after 3 days by MTS assay

BaF3 [3] = test: cells; settings: Mus musculus, BaF3, 72 h; remark: listed apart in the source
Description: Antiproliferative activity against mouse BA/F3 cells expressing ABL T315I mutant after 3 days by MTS assay

[4] = Oral bioavailability in CD rat at 15 mg/kg by LC-MS/MS analysis; type: ADME, organism-based; settings: in vivo
[5] = Cmax in CD rat at 15 mg/kg, po by LC-MS/MS analysis; type: ADME, organism-based; parameters: dose 15 mg/kg, route oral; settings: CD, in vivo
[6] = Clearance in CD rat at 5 mg/kg, iv by LC-MS/MS analysis; type: ADME, organism-based; parameters: dose 5 mg/kg, route intravenous; settings: in vivo
[7] = Half life in CD rat at 15 mg/kg, po by LC-MS/MS analysis; type: ADME, organism-based; parameters: dose 15 mg/kg, route oral; settings: in vivo
[8] = Half life in CD rat at 5 mg/kg, iv by LC-MS/MS analysis; type: ADME, organism-based; parameters: dose 5 mg/kg, route intravenous; settings: in vivo
[9] = Volume of distribution in CD rat at 5 mg/kg, iv by LC-MS/MS analysis; type: ADME, organism-based; parameters: dose 5 mg/kg, route intravenous; settings: in vivo
[10] = Tmax in CD rat at 15 mg/kg, po by LC-MS/MS analysis; type: ADME, organism-based; parameters: dose 15 mg/kg, route oral; settings: in vivo
Rattus norvegicus = test: Dose normalized AUC (0 to 24 hrs) in CD rat at 15 mg/kg, po by LC-MS/MS analysis; type: ADME, organism-based; parameters: time < 24 hr, dose 15 mg/kg, route oral; settings: in vivo
BaF3 [11] = test: cells; settings: Mus musculus, BaF3, 72 h; remark: listed apart in the source
Description: Antiproliferative activity against mouse BA/F3 cells expressing wild type ABL after 3 days by MTS assay in presence of 340 uM human serum albumin

[12] = AUC (0 to 24 hrs) in mouse at 30 mg/kg, po by LC-MS/MS analysis; settings: plasma
[13] = Cmax in mouse at 30 mg/kg, po by LC-MS/MS analysis; settings: in vivo
[14] = Half life in mouse at 30 mg/kg, po by LC-MS/MS analysis; settings: in vivo

SMILES	IC50 (BaF3 [1]) [nM]	IC50 (BaF3 [2]) [nM]	IC50 (BaF3 [3]) [nM]	further results
Cc1ccc(C(=O)Nc2ccc(CN3CCCN(C)CC3)c(C(F)(F)F)c2)cc1C#Cc1cnc2ccccn12	8.4	1880	157	–
Cc1ccc(C(=O)Nc2ccc(CN3CCN(C)CC3)c(C(F)(F)F)c2)cc1C#Cc1cnc2ncccn12	10	1500	500	–
Cc1ccc(C(=O)Nc2cc(-n3ccnc3CN(C)C)cc(C(F)(F)F)c2)cc1C#Cc1cnc2ccccn12	11	7010	251	–
Cc1cn(-c2cc(NC(=O)c3ccc(C)c(/C=C/n4cnc5c(NC6CC6)ncnc54)c3)cc(C(F)(F)F)c2)cn1	7.3	–	–	–
Cc1ccc(C(=O)Nc2ccc(CN3CCN(C)CC3)c(C(F)(F)F)c2)cc1C#Cc1cnc2[nH]ccc2c1	4.4	2020	14	bioavailability [4]: 15%; Cmax [5]: 71 ng/mL; clearance [6]: 20.8 mL/min/kg; half-life [7]: 14.3 h; half-life [8]: 10.9 h; Vd [9]: 19.6 L/kg; Tmax [10]: 6 h; AUC (Rattus norvegicus): 119 ng·h/mL/mg/kg
Cc1ccc(C(=O)Nc2ccc(CN3CCN(C(C)C)CC3)c(C(F)(F)F)c2)cc1C#Cc1cnc2ccccn12	8	1650	43	–
Cc1ccc(C(=O)Nc2ccc(CN3CCN(CCO)CC3)c(C(F)(F)F)c2)cc1C#Cc1cnc2ccccn12	2.3	1960	42	–
Cc1ccc(C(=O)Nc2cc(-n3ccnc3)cc(C(F)(F)F)c2)cc1/C=C/n1cnc2c(NC3CC3)ncnc21	4.2	–	–	–
Cc1ccc(C(=O)Nc2cc(-n3ccnc3)cc(C(F)(F)F)c2)cc1C#Cc1cnc2ccccn12	8	9840	471	bioavailability [4]: 42.4%; Cmax [5]: 2350 ng/mL; clearance [6]: 1.33 mL/min/kg; half-life [7]: 21.6 h; half-life [8]: 9.1 h; IC50 (BaF3 [11]): 51 nM; Vd [9]: 1 L/kg; Tmax [10]: 6 h; AUC (Rattus norvegicus): 5745.9 ng·h/mL/mg/kg
Cc1ccc(C(=O)Nc2ccc(CN3CCN(C)CC3)c(C(F)(F)F)c2)cc1C#Cc1cnc2cccnn12 [PONATINIB]	1.2	–	8.8	bioavailability [4]: 18.2%; clearance [6]: 10.8 mL/min/kg; half-life [7]: 11 h; half-life [8]: 10.2 h; Vd [9]: 9.7 L/kg; Tmax [10]: 6 h; AUC (Rattus norvegicus): 278.5 ng·h/mL/mg/kg
CCN1CCN(Cc2ccc(NC(=O)c3ccc(C)c(C#Cc4cnc5ccccn45)c3)cc2C(F)(F)F)CC1	5.2	1950	49	–
Cc1ccc(C(=O)Nc2ccc(CN3CCN(C)CC3)c(Cl)c2)cc1C#Cc1cnc2cccnn12	2.3	1920	210	–
CN1CCN(Cc2ccc(NC(=O)c3ccc(Cl)c(C#Cc4cnc5cccnn45)c3)cc2C(F)(F)F)CC1	2.5	1870	8.6	AUC(0-t) at 24 h [12]: 6080 ng·h/mL; bioavailability [4]: 79.2%; Cmax [5]: 302 ng/mL; clearance [6]: 19.7 mL/min/kg; Cmax [13]: 441 ng/mL; half-life [7]: 20.2 h; half-life [8]: 9.9 h; Vd [9]: 16.7 L/kg; Tmax [10]: 6 h; half-life [14]: 2.9 h; AUC (Rattus norvegicus): 673.8 ng·h/mL/mg/kg
Cc1ccc(NC(=O)c2ccc(CN3CCN(C)CC3)c(C(F)(F)F)c2)cc1C#Cc1cnc2ccccn12	2	1800	50	–
Cc1ccc(C(=O)Nc2ccc(CN3CCOCC3)c(C(F)(F)F)c2)cc1C#Cc1cnc2ccccn12	2.1	7440	727	–
Cc1ccc(C(=O)Nc2ccc(CN3CCN(C)CC3)c(C(F)(F)F)c2)cc1C#Cc1cnc2nc[nH]c2c1	3.4	890	42	Cmax [5]: 32.7 ng/mL; clearance [6]: 34 mL/min/kg; half-life [8]: 5.4 h; Vd [9]: 15.9 L/kg; Tmax [10]: 6 h; AUC (Rattus norvegicus; BLD = below limit of detection): BLD
Cc1ccc(C(=O)Nc2cc(CN3CCN(C)CC3)cc(C(F)(F)F)c2)cc1C#Cc1cnc2ccccn12	11	5380	232	–
Cc1ccc(C(=O)Nc2cc(-n3cnc(CN4CCCC4)c3)cc(C(F)(F)F)c2)cc1C#Cc1cnc2ccccn12	9.4	3540	135	–
Cc1ccc(C(=O)Nc2ccc(CN3CCN(C)CC3)c(C(F)(F)F)c2)cc1C#Cc1cnc2c(c1)OCC(=O)N2	3	369	17	–

SMILES	IC50 (BaF3 [1]) [nM]	IC50 (BaF3 [2]) [nM]	IC50 (BaF3 [3]) [nM]	further results
Cc1ccc(C(=O)Nc2ccc(CN3CCN(C)CC3)c(C(F)(F)F)c2)cc1/C=C/c1cnc2cccnn12	7.9	3240	211	–
Cc1ccc(C(=O)Nc2ccc(CN3CCN(CCF)CC3)c(C(F)(F)F)c2)cc1C#Cc1cnc2ccccn12	4	971	166	–
Cc1ccc(C(=O)Nc2cccc(C(F)(F)F)c2)cc1C#Cc1cnc2cccnn12	10	10000	1130	–
Cc1ccc(C(=O)Nc2ccc(CN3CCNC(C)C3)c(C(F)(F)F)c2)cc1C#Cc1cnc2ccccn12 (stereo not given)	9.5	3970	203	–
Cc1ccc(C(=O)Nc2ccc(CN3CCN(C)CC3)c(C(F)(F)F)c2)cc1C#Cc1cnc2cnccn12	0.9	1290	13	AUC(0-t) at 24 h [12]: 2690 ng·h/mL; bioavailability [4]: 16.7%; Cmax [5]: 57.8 ng/mL; clearance [6]: 48.3 mL/min/kg; Cmax [13]: 521 ng/mL; half-life [7]: 5 h; half-life [8]: 3.5 h; Vd [9]: 14.7 L/kg; Tmax [10]: 4 h; half-life [14]: 2.7 h; AUC (Rattus norvegicus): 57 ng·h/mL/mg/kg
Cc1ccc(C(=O)Nc2cc(-n3ccnc3)cc(C(F)(F)F)c2)cc1C#Cc1cnc2c(N)cccn12	8.6	10000	72	bioavailability [4]: 5.5%; Cmax [5]: 234 ng/mL; clearance [6]: 6 mL/min/kg; half-life [7]: 5.2 h; half-life [8]: 15.8 h; Vd [9]: 8.2 L/kg; Tmax [10]: 1 h; AUC (Rattus norvegicus): 151.9 ng·h/mL/mg/kg
Cc1ccc(C(=O)Nc2ccc(CN3CCN(C)CC3)c(C(F)(F)F)c2)cc1C#Cc1cnc2ccccn12	3.6	1570	26	AUC(0-t) at 24 h [12]: 11300 ng·h/mL; bioavailability [4]: 29%; Cmax [5]: 149 ng/mL; clearance [6]: 12.5 mL/min/kg; Cmax [13]: 986 ng/mL; half-life [7]: 24.7 h; half-life [8]: 10.2 h; IC50 (BaF3 [11]): 5.9 nM; Vd [9]: 11 L/kg; Tmax [10]: 6 h; half-life [14]: 2.9 h; AUC (Rattus norvegicus): 386.3 ng·h/mL/mg/kg
Cc1ccc(C(=O)Nc2cc(C(F)(F)F)on2)cc1/C=C/n1cnc2c(NC3CC3)ncnc21	12	–	7120	–
Cc1ccc(C(=O)Nc2ccc(CN3CCNCC3)c(C(F)(F)F)c2)cc1C#Cc1cnc2cccnn12	4	915	34	–
Cc1ccc(C(=O)Nc2ccc(OC3CCN(C)CC3)c(C(F)(F)F)c2)cc1C#Cc1cnc2ccccn12	3.4	1010	77	–
Cc1ccc(C(=O)Nc2ccc(CN3CC[C@H](N(C)C)C3)c(C(F)(F)F)c2)cc1C#Cc1cnc2ccccn12	5.4	812	58	–
CC(=O)Nc1cccn2c(C#Cc3cc(C(=O)Nc4cc(-n5ccnc5)cc(C(F)(F)F)c4)ccc3C)cnc12	11	7390	44	–
Cc1ccc(C(=O)Nc2cc(C(F)(F)F)ccn2)cc1/C=C/n1cnc2c(NC3CC3)ncnc21	4.8	–	–	–
CN1CCN(Cc2ccc(NC(=O)c3cccc(C#Cc4cnc5cccnn45)c3)cc2C(F)(F)F)CC1	2.3	4210	39	–
Cc1ccc(C(=O)Nc2cc(C(F)(F)F)ccn2)cc1C#Cn1cnc2c(NC3CC3)ncnc21	2	–	548	half-life [7]: 1.5 h; AUC (Rattus norvegicus): 11.8 ng·h/mL/mg/kg
Cc1ccc(C(=O)Nc2ccc(CN3CCN(C)CC3)c(C3CC3)c2)cc1C#Cc1cnc2cccnn12	3.9	1870	256	–
Cc1ccc(C(=O)Nc2ccc(CN3CCN(C)CC3)c(C(F)(F)F)c2)cc1CCc1cnc2cccnn12	4.3	6000	295	–
Cc1ccc(C(=O)Nc2ccc(CN3CCN(CCO)CC3)c(C(F)(F)F)c2)cc1C#Cc1cnc2cccnn12	1.5	1680	14	AUC(0-t) at 24 h [12]: 13700 ng·h/mL; bioavailability [4]: 22.3%; Cmax [5]: 164 ng/mL; clearance [6]: 25.5 mL/min/kg; Cmax [13]: 1330 ng/mL; half-life [7]: 3.4 h; half-life [8]: 3.5 h; Vd [9]: 7.7 L/kg; Tmax [10]: 4 h; half-life [14]: 2.4 h; AUC (Rattus norvegicus): 145.3 ng·h/mL/mg/kg
Cc1ccc(C(=O)Nc2ccc(CN3CCNCC3)c(C(F)(F)F)c2)cc1C#Cc1cnc2ccccn12	3.5	2080	22	–
